Values quoted from earlier work as cited in patent US7144857B2 (priority 2004, dated 2006).

Test system: sternal wound infections
Conditions: 416 patients, randomized to topical vancomycin; p=0.02

CN[C@H](CC(C)C)C(=O)N[C@H]1C(=O)N[C@@H](CC(N)=O)C(=O)N[C@H]2C(=O)N[C@H]3C(=O)N[C@H](C(=O)N[C@H](C(=O)O)c4cc(O)cc(O)c4-c4cc3ccc4O)[C@H](O)c3ccc(c(Cl)c3)Oc3cc2cc(c3O[C@@H]2O[C@H](CO)[C@@H](O)[C@H](O)[C@H]2O[C@H]2C[C@](C)(N)[C@H](O)[C@H](C)O2)Oc2ccc(cc2Cl)[C@H]1O [topical vancomycin, vancomycin]
decrease of the rate of sternal infection: 7 factor
